Results reported in PMC6680510, “Benzotriazine Di-Oxide Prodrugs for Exploiting Hypoxia and Low Extracellular pH in Tumors” (Molecules, 2019).
Where “and” joins values, the source holds several entries; their conditions need not be identical. Equal values may be shown once. Read-outs that look alike come from different tables or passages of the source.

Legend:
[1] = system: reduction of BTOs to their N-1-oxides by SiHa cells; assay: WST-1 inhibition of anoxic reduction of BTOs to N-1-oxides; assay type: cell-based
Excerpt: One possibility for this is that the BTO acids are reduced to the 1-oxides by an extracellular one-electron reductase. To test this, we evaluated whether the cell-excluded disulfonic acid tetrazolium salt WST-1 could compete with BTO acids for one-electron reduction. WST-1 is a known electron acceptor for one-electron reduction by the plasma membrane electron transport system (PMET) and is widely used as a cell viability assay, although the latter application uses 1-methoxyphenazine methylsulphate (mPMS) as an electron transfer intermediate. Given the possibility that mPMS could cross the plasma membrane itself, we used WST-1 without mPMS to ensure that the electron donor is a cell surface reductase.
The log-phase cells were trypsinized and the pellets were transferred to the anaerobic chamber and resuspended in equilibrated αMEM + 5% FBS at pH 7.4 and plated (10^5 cells in 100 μL/well for experiments with WST1, otherwise 2 × 10^5 cells/well). After incubation at 37 °C for 2 h, 20 μL was replaced with the anoxic medium containing 5× the final concentrations of test compounds with or without WST-1 (1 mM, Toronto Research Chemicals). A cell-free medium used as a control to check for reduction in the anoxic medium. Cultures were mixed gently, incubated for a further 2 h, then the extracellular medium was removed and 200 μL of ice-cold MeOH was added to the monolayers. The MeOH extract was transferred to the medium sample (thus combining the intracellular and extracellular samples). The pooled samples (combining the intracellular and extracellular samples) were removed from anoxic chamber, then centrifuged (13000g, 30 s) and frozen for subsequent HPLC analysis. Cell-free wells were used for single-point calibration of the parent compounds and 1-oxides in each experiment.
Figure 8 Inhibition of reduction of BTOs to their N-1-oxides by the cell-excluded electron acceptor WST-1. SiHa cells were seeded in 96-well plates at 10^6 cells/mL and exposed to the compounds (50 μM) with the indicated concentrations of WST-1 under anoxia for 2 h. Total (pooled intracellular and extracellular) amounts of the 1-oxide metabolites were determined by HPLC. Values are mean and SEM for two experiments with triplicate cultures at each concentration.

[2] = Solubility in AlphaMEM + 5% FBS, pH 7.4; conditions: culture medium (AlphaMEM + 5% FBS), pH 7.4, plasma or biological fluid
SiHa cells [3] = assay: IC50 assay (inhibition of proliferation, 4 h exposure, SRB)
Method: Cells were seeded in 96-well plates (SiHa or FaDu 1500 cells/well, UT-SCC-74B 800 cells/well) in 100 μL. After incubation for 2 h, the drugs were added in 50 μL of the same titrated medium at 3× the final concentration to duplicate the wells. After a further 4 h the plates were checked for drug precipitation using a phase contrast microscope, then drugs were removed by aspirating and washing with the standard (pH 7.4) medium, then aspirating again and adding 150 μL of the medium. Cultures were then grown for 5 days before staining with sulphorhodamine B and measuring absorbance, with the estimation of IC50 values using 4-parameter logistic regression, as previously carried out.
The medium and plasticware was equilibrated in the chamber for 3 days prior to use. In the anoxia experiments, FaDu cells were plated in poly-L-lysine coated plates (Corning Cat # 356461) to improve attachment.
Cells were subsequently grown under standard cell culture conditions (oxia, pHe 7.4) for 5 days before staining with sulforhodamine B (SRB). […] (B) SN30000 (2). (C) BTO acid 4a. Values are means and errors are ranges for duplicate cultures in a single experiment. Fitted curves are 4-parameter logistic regressions. PCR = pH cytotoxicity ratio. ACR = anoxia cytotoxicity ratio. TMR = tumor microenvironment ratio.

FaDu cells = assay: as above; assay type: cell-based
Method: Cells were seeded in 96-well plates (SiHa or FaDu 1500 cells/well, UT-SCC-74B 800 cells/well) in 100 μL. After incubation for 2 h, the drugs were added in 50 μL of the same titrated medium at 3× the final concentration to duplicate the wells. After a further 4 h the plates were checked for drug precipitation using a phase contrast microscope, then drugs were removed by aspirating and washing with the standard (pH 7.4) medium, then aspirating again and adding 150 μL of the medium. Cultures were then grown for 5 days before staining with sulphorhodamine B and measuring absorbance, with the estimation of IC50 values using 4-parameter logistic regression, as previously carried out [85].

SiHa cells [4] = system: SiHa cells
[5] = One-electron reduction potentials by pulse radiolysis; assay type: physicochemical; conditions: pH 7.0, equilibrium with redox indicator shown in square brackets
Method: One-electron reduction potentials (E^0′) were determined from the redox equilibria with methylviologen, MV^2+, (E^0′ = […], [34]), dimethyldiquat, V21^2+, (E^0′ = […], [35]), or triquat, TQ^2+, (E^0′ = −548 ± 7 mV [34]). […] Substituting the 3-alkanoic sidechain with the 3-aminoalkanoic sidechain on the BTO 1,4-dioxide lowers the E^0′, as does the addition of the cyclopentane ring. The combined effect is seen for 10a, where the E^0′ value is −565 mV, which is expected to be too low for significant bioreduction under hypoxia.
Time-resolved optical absorption and kinetic studies were carried out using the University of Auckland’s 4 MeV linear accelerator, which has been previously described. The one-electron reduction potentials of the compounds (A) and couple E^0′(A/A^−), versus normal hydrogen electrode, were determined at pH 7.0 (2.5 mM phosphate) by establishing redox equilibria within 50 μs between three mixtures of one-electron reduced A and the viologen reference compounds, MV^2+, TQ^2+ and V21^2+. The determined equilibrium constants were used to calculate the ΔE values using the Nernst equation, correcting for ionic strength effects, as described in the literature.

[6] = Homo sapiens, SiHa, 4 h, read-out: Anoxic IC50, SiHa, pHe 6.5, 4 h, anoxic
[7] = Homo sapiens, SiHa, 4 h, read-out: Anoxic IC50, SiHa, pHe 7.4, 4 h, anoxic
[8] = Homo sapiens, SiHa, 4 h, read-out: Oxic IC50, SiHa, pHe 6.5, 4 h, oxic
[9] = Homo sapiens, SiHa, 4 h, read-out: Oxic IC50, SiHa, pHe 7.4, 4 h, oxic
[10] = Homo sapiens, 4 h, pHe 6.5, 4 h, anoxic, read-out: Anoxic IC50
[11] = Homo sapiens, 4 h, pHe 6.5, 4 h, oxic, read-out: Oxic IC50
[12] = Homo sapiens, 4 h, pHe 7.4, 4 h, anoxic, read-out: Anoxic IC50
[13] = Homo sapiens, 4 h, pHe 7.4, 4 h, oxic, read-out: Oxic IC50
[14] = read-out: Anoxic IC50, SiHa, pHe 6.5, 4 h, anoxic
[15] = read-out: Anoxic IC50, SiHa, pHe 7.4, 4 h, anoxic
[16] = read-out: Oxic IC50, SiHa, pHe 6.5, 4 h, oxic
[17] = read-out: Oxic IC50, SiHa, pHe 7.4, 4 h, oxic
[18] = pHe 6.5, 4 h, anoxic, read-out: Anoxic IC50
[19] = pHe 6.5, 4 h, oxic, read-out: Oxic IC50
[20] = pHe 7.4, 4 h, anoxic, read-out: Anoxic IC50
[21] = pHe 7.4, 4 h, oxic, read-out: Oxic IC50

solubility ([2]; thermodynamic from solid) [µM]	melting point	Compound	IC50 (SiHa cells [3]; [6]) [µM]	IC50 (SiHa cells [3]; [7]) [µM]	IC50 (SiHa cells [3]; [8]) [µM]	IC50 (SiHa cells [3]; [9]) [µM]	TMR (overall TME ratio = oxic IC50 pHe 7.4/anoxic IC50 pHe 6.5) (SiHa cells [3]; SiHa)	PCR Anoxic (IC50 at pHe 7.4/IC50 at pHe 6.5) (SiHa cells [3]; SiHa, anoxic)	PCR oxic (IC50 at pHe 7.4/IC50 at pHe 6.5) (SiHa cells [3]; SiHa, oxic)	ACR (anoxic cytotoxicity ratio = oxic IC50/anoxic IC50) (SiHa cells [3]; SiHa, pHe 6.5)	ACR (anoxic cytotoxicity ratio = oxic IC50/anoxic IC50) (SiHa cells [3]; SiHa, pHe 7.4)	TMR (oxic IC50 pHe 7.4/anoxic IC50 pHe 6.5) (FaDu cells)	IC50 (FaDu cells; [10]) [µM]	IC50 (FaDu cells; [11]) [µM]	IC50 (FaDu cells; [12]) [µM]	IC50 (FaDu cells; [13]) [µM]	PCR Anoxic (IC50 at pHe 7.4/IC50 at pHe 6.5) (FaDu cells; anoxic)	PCR oxic (IC50 at pHe 7.4/IC50 at pHe 6.5) (FaDu cells; oxic)	ACR (oxic IC50/anoxic IC50) (FaDu cells; pHe 6.5)	ACR (oxic IC50/anoxic IC50) (FaDu cells; pHe 7.4)	further results
		O=[N+]([O-])c1ccc(-[n+]2nc(-c3ccc(S(=O)(=O)O)cc3S(=O)(=O)[O-])nn2-c2ccc(I)cc2)cc1 [WST-1]																			IC50 ([1]; read-out: IC50 for inhibition of anoxic reduction of 4a to N-1-oxide 15a, substrate 4a 50 μM, anoxia 2 h): 7.05 µM; IC50 ([1]; read-out: IC50 for inhibition of anoxic reduction of 7a to N-1-oxide 15d, substrate 7a 50 μM, anoxia 2 h): 14.3 µM; IC50 ([1]; substrate SN30000 50 μM, anoxia 2 h, read-out: IC50 for inhibition of metabolic reduction of SN30000): > 1000 µM; IC50 ([1]; substrate TPZ 50 μM, anoxia 2 h, read-out: IC50 for inhibition of metabolic reduction of TPZ): > 1000 µM
280	170 to 171 °C	COC(=O)CCc1n[n+]([O-])c2cc3c(cc2[n+]1[O-])CCC3 [Compound 7b, 3-(3-Methoxy-3-oxopropyl)-7,8-dihydro-6H-indeno[5,6-e][1,2,4]triazine 1,4-Dioxide]	15.1 ± 3.1	7.3 ± 1.6	195 ± 22	> 200	>13	0.48 ± 0.15	>1	13.0 ± 3.0	>27	>10	20 ± 5.4	157 ± 28	11.5 ± 2.2	> 200	0.58 ± 0.19	>1.2	7.84 ± 2.56	>17	
		3-((2-Carboxyethyl)amino)-7,8-dihydro-6H-indeno[5,6-e][1,2,4]triazine 1,4-Dioxide [Compound 11a]					15.9 ± 1.6	4.94 ± 1.14	4.18 ± 0.21			>1					>1		> 1		Ci ratio (Ci at pHe 6.5/Ci at pHe 7.4) (SiHa cells [4]): 4.4 ± 1.2 fold; Ci/Ce, pHe 6.5 Obs 5 min (SiHa cells [4]): 0.17 ± 0.02; Ci/Ce, pHe 6.5 Obs 60 min (SiHa cells [4]): 0.29 ± 0.02; Ci/Ce, pHe 7.4 Obs 5 min (SiHa cells [4]): <0.1; Ci/Ce, pHe 7.4 Obs 60 min (SiHa cells [4]): <0.1; E^0′ one-electron reduction potential [5]: −481 ± 10 [MV^2+] mV; IC50 (SiHa cells [3]; [14]): 145 ± 13 µM; IC50 (SiHa cells [3]; [15]): 714 ± 152 µM; IC50 (SiHa cells [3]; [16]): 551 ± 16 µM; IC50 (SiHa cells [3]; [17]): 2300 ± 92 µM; IC50 (FaDu cells; [18]): 3810 ± 390 µM; IC50 (FaDu cells; [19]): > 4000 µM; IC50 (FaDu cells; [20]): > 4000 µM; IC50 (FaDu cells; [21]): > 4000 µM
	181 to 183 °C (dec.)	Cc1ccc2c(c1)[n+]([O-])nc(CCC(=O)O)[n+]2[O-] [Compound 5a, 3-(2-Carboxyethyl)-7-methylbenzo[e][1,2,4]triazine 1,4-Dioxide]	225 ± 38	542 ± 113	449 ± 188	> 3000	>13	2.41 ± 0.64	>6.7	1.99 ± 0.90	>5.5	13.9 ± 1.7	203 ± 18	1100 ± 110	924 ± 64	2770 ± 690	4.29 ± 0.55	2.55 ± 0.32	5.49 ± 0.26	3.00 ± 0.22	solubility ([2]; kinetic from dmso stock): > 980 µM
70	171 to 178 °C	COC(=O)CNc1n[n+]([O-])c2cc3c(cc2[n+]1[O-])CCC3 [Compound 9b, 3-((2-Methoxy-2-oxoethyl)amino)-7,8-dihydro-6H-indeno[5,6-e][1,2,4]triazine 1,4-dioxide]	10.9 ± 1.42	8.08 ± 2.23	42.2 ± 5.7	> 53	>4.6	0.74 ± 0.23	>1.2	3.87 ±0.73	>6.5	>1.4	37.7 ± 8	> 53	46.9 ± 3	> 53	1.24 ± 0.28		>1	>1	
8700		O=C(O)CNc1n[n+]([O-])c2ccccc2[n+]1[O-] [Compound 8a, 3-((Carboxymethyl)amino)benzo[e][1,2,4]triazine 1,4-dioxide]	135 ± 18	154 ± 26	> 2000	> 2000	>15	1.14 ± 0.25		>15	>13	>6.9	290 ± 48	1450 ± 268	289 ± 25	> 2000	1.0 ± 0.19	>1	4.99 ± 1.24	>6.9	E^0′ one-electron reduction potential [5]: −470 ± 9 [MV^2+] mV
		O=C(O)CCCNc1n[n+]([O-])c2ccccc2[n+]1[O-] [Compound 10a, 3-((3-Carboxypropyl)amino)benzo[e][1,2,4]triazine 1,4-Dioxide]					>4.8	>4.8				>4					1.58 ± 0.37		>4	>3	E^0′ one-electron reduction potential [5]: −565 mV and −565 ± 8 [TQ^2+] mV; ACR (anoxic cytotoxicity ratio = oxic IC50/anoxic IC50) (SiHa cells [3]): >4.8; IC50 (SiHa cells [3]; [14]): 416 ± 57 µM; IC50 (SiHa cells [3]; [15]): > 2000 µM; IC50 (SiHa cells [3]; [16]): > 2000 µM; IC50 (SiHa cells [3]; [17]): > 2000 µM; IC50 (FaDu cells; [18]): 543 ± 126 µM; IC50 (FaDu cells; [19]): > 2000 µM; IC50 (FaDu cells; [20]): 856 ± 22 µM; IC50 (FaDu cells; [21]): > 2000 µM
